# Measurements from patent US12653815B2, “Luminally-acting N-(piperidin-4-yl)benzamide derivatives” (Takeda Pharmaceutical Company Limited, priority 2020, dated 2026).
# Biological target: T1, human 5-HT4(b) receptor (Homo sapiens, UniProt Q13639)
# T1 construct: overexpressing the full-length human 5-HT4(b) receptor with an N-terminal FLAG tag; FLAG (N); host or cells: CHO-K1
# Test: 5-HT4(b) agonist assay (cAMP accumulation)
# Type: cell-based
# Details: CHO-K1 cells overexpressing full-length human 5-HT4(b) receptor; cAMP accumulation after 30 minutes at room temperature; 1 μM 5-HT as 100% activity
# Description: One may determine the activity of the compounds of Formula 1 using a variety of methods, including in vitro and in vivo methods. The ability of the example compounds to activate the 5-HT4(b) receptor may be determined using the following assay.
# Chinese hamster ovary (CHO-K1) cells overexpressing the full-length human 5-HT4(b) receptor with an N-terminal FLAG tag (Multispan Inc, Hayward, CA) are cultured per the manufacturer's protocol in 1:1 DMEM/F12 (Thermo Fisher, Waltham, MA) with 10% fetal bovine serum (GE Healthcare, Pittsburgh, PA) and 10 μg/mL puromycin (Thermo Fisher, Waltham, MA), and stored in frozen aliquots to be used as assay ready cells. On the day of the assay, cells are removed from frozen storage, washed two times in 1× Kreb's Ringer Buffer (Zenbio, Research Triangle Park, NC), and re-suspended to a concentration of 4×10^6 cells/mL in 1× Kreb's Ringer Buffer. Test compound (50 nL) in 100% DMSO is acoustically dispensed in low volume, white, 384-well polypropylene plates (Corning, Tewksbury, MA), followed by the addition of 4×10^4 cells per well in a total volume of 10 μL. Cells are incubated with test compound for 30 minutes at room temperature in the dark, and cAMP accumulation is measured using the Cisbio HiRange cAMP assay kit (Bedford, MA) per the manufacturer's protocol. Anti-cAMP antibody and d2-cAMP tracer reagents diluted in lysis/detection buffer are incubated in the dark for 1 hour, and results are measured on a Pherastar plate reader (BMG Labtech, Ortenberg, Germany). Data are normalized using 1 μM 5-HT (Sigma Aldrich, St. Louis, MO) as 100% activity, and DMSO alone as 0% activity.
# The ability of the example compounds to activate the 5-HT4(b) receptor was evaluated using the assay described in the Biological Activity section. Table 1, below, lists EC50 from the 5-HT4(b) agonist assay for each of the example compounds, where smaller EC50 values represent higher potency.
# T1 sequence (Q13639 whole entry): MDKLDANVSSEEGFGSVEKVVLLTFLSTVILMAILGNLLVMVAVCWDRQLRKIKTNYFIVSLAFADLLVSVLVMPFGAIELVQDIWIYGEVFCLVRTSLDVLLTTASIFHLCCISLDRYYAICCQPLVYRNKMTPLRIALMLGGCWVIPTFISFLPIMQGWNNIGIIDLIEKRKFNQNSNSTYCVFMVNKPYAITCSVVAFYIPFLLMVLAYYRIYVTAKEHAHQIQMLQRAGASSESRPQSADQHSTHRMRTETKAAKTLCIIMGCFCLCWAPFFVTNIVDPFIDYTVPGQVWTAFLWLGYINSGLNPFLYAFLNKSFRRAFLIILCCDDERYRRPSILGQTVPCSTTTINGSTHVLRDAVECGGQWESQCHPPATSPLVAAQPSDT
row,EC50 [nM],SMILES
1,19.8,"COc1cc(N)c(Cl)cc1C(=O)N[C@@H]1CCN(CCCCCC(=O)NC[C@H](O)[C@@H](O)[C@H](O)[C@H](O)CO)C[C@@H]1OC [Example 1, 4-amino-5-chloro-2-methoxy-N-((3S,4R)-3-methoxy-1-(6-oxo-6-(((2S,3R,4R,5R)-2,3,4,5,6-pentahydroxyhexyl)amino)hexyl)piperidin-4-yl)benzamide]"
2,21.4,"COc1cc(N)c(Cl)cc1C(=O)N[C@@H]1CCN(CCCCCC(=O)NCCCCCCCC(=O)NC[C@H](O)[C@@H](O)[C@H](O)[C@H](O)CO)C[C@@H]1OC [Example 2, 4-amino-5-chloro-2-methoxy-N-((3S,4R)-3-methoxy-1-(6-oxo-6-((8-oxo-8-(((2S,3R,4R,5R)-2,3,4,5,6-pentahydroxyhexyl)amino)octyl)amino)hexyl)piperidin-4-yl)benzamide]"
3,22.3,"COc1cc(N)c(Cl)cc1C(=O)N[C@@H]1CCN(CCCCCC(=O)NCCCCCC(=O)NC[C@H](O)[C@@H](O)[C@H](O)[C@H](O)CO)C[C@@H]1OC [Example 3, 4-amino-5-chloro-2-methoxy-N-((3S,4R)-3-methoxy-1-(6-oxo-6-((6-oxo-6-(((2S,3R,4R,5R)-2,3,4,5,6-pentahydroxyhexyl)amino)hexyl)amino)hexyl)piperidinyl)benzamide]"
4,28.6,"COc1cc(N)c(Cl)cc1C(=O)N[C@@H]1CCN(CCCCCC(=O)NCCCC(=O)NC[C@H](O)[C@@H](O)[C@H](O)[C@H](O)CO)C[C@@H]1OC [Example 4, 4-amino-5-chloro-2-methoxy-N-((3S,4R)-3-methoxy-1-(6-oxo-6-((4-oxo-4-(((2S,3R,4R,5R)-2,3,4,5,6-pentahydroxyhexyl)amino)butyl)amino)hexyl)piperidin-4-yl)benzamide]"
5,13.2,"COc1cc(N)c(Cl)cc1C(=O)N[C@@H]1CCN(CCCCCC(=O)NCC(=O)NC[C@H](O)[C@@H](O)[C@H](O)[C@H](O)CO)C[C@@H]1OC [Example 5, 4-amino-5-chloro-2-methoxy-N-((3S,4R)-3-methoxy-1-(6-oxo-6-((2-oxo-2-(((2S,3R,4R,5R)-2,3,4,5,6-pentahydroxyhexyl)amino)ethyl)amino)hexyl)piperidin-4-yl)benzamide]"
6,22.2,"COc1cc(N)c(Cl)cc1C(=O)N[C@@H]1CCN(CCCCCC(=O)NCCOCCOCCOCCC(=O)NC[C@H](O)[C@@H](O)[C@H](O)[C@H](O)CO)C[C@@H]1OC [Example 6, 4-amino-5-chloro-2-methoxy-N-((3S,4R)-3-methoxy-1-((22S,23R,24R,25R)-22,23,24,25,26-pentahydroxy-6,19-dioxo-10,13,16-trioxa-7,20-diazahexacosyl)piperidin-4-yl)benzamide]"
7,23.4,"COc1cc(N)c(Cl)cc1C(=O)N[C@@H]1CCN(CCCCCC(=O)NCCOCCOCCC(=O)NC[C@H](O)[C@@H](O)[C@H](O)[C@H](O)CO)C[C@@H]1OC [Example 7, 4-amino-5-chloro-2-methoxy-N-((3S,4R)-3-methoxy-1-((19S,20R,21R,22R)-19,20,21,22,23-pentahydroxy-6,16-dioxo-10,13-dioxa-7,17-diazatricosyl)piperidin-4-yl)benzamide]"
8,9.6,"COc1cc(N)c(Cl)cc1C(=O)N[C@@H]1CCN(CCCCCC(=O)NC2CCN(CCCCCCCC(=O)NC[C@H](O)[C@@H](O)[C@H](O)[C@H](O)CO)CC2)C[C@@H]1OC [Example 8, 4-amino-5-chloro-2-methoxy-N-((3S,4R)-3-methoxy-1-(6-oxo-6-((1-(8-oxo-8-(((2S,3R,4R,5R)-2,3,4,5,6-pentahydroxyhexyl)amino)octyl)piperidin-4-yl)amino)hexyl)piperidin-4-yl)benzamide]"
9,8.1,"COc1cc(N)c(Cl)cc1C(=O)N[C@@H]1CCN(CCCCCC(=O)NC2CCN(CCCCCC(=O)NC[C@H](O)[C@@H](O)[C@H](O)[C@H](O)CO)CC2)C[C@@H]1OC [Example 9, 4-amino-5-chloro-2-methoxy-N-((3S,4R)-3-methoxy-1-(6-oxo-6-((1-(6-oxo-6-(((2S,3R,4R,5R)-2,3,4,5,6-pentahydroxyhexyl)amino)hexyl)piperidinyl)amino)hexyl)piperidin-4-yl)benzamide]"
10,26.1,"COc1cc(N)c(Cl)cc1C(=O)N[C@@H]1CCN(CCCCCC(=O)N(C)C2CCN(CCCCCCCC(=O)NC[C@H](O)[C@@H](O)[C@H](O)[C@H](O)CO)CC2)C[C@@H]1OC [Example 10, 4-amino-5-chloro-2-methoxy-N-((3S,4R)-3-methoxy-1-(6-(methyl(1-(8-oxo-8-(((2S,3R,4R,5R)-2,3,4,5,6-pentahydroxyhexyl)amino)octyl)piperidin-4-yl)amino)-6-oxohexyl)piperidin-4-yl)benzamide]"
11,14.2,"COc1cc(N)c(Cl)cc1C(=O)N[C@@H]1CCN(CCCCCC(=O)N(C)C2CCN(CCCCCC(=O)NC[C@H](O)[C@@H](O)[C@H](O)[C@H](O)CO)CC2)C[C@@H]1OC [Example 11, 4-amino-5-chloro-2-methoxy-N-((3S,4R)-3-methoxy-1-(6-(methyl(1-(6-oxo-6-(((2S,3R,4R,5R)-2,3,4,5,6-pentahydroxyhexyl)amino)hexyl)piperidinyl)amino)-6-oxohexyl)piperidin-4-yl)benzamide]"
12,14.6,"COc1cc(N)c(Cl)cc1C(=O)N[C@@H]1CCN(CCCCCC(=O)N[C@@H]2CCCN(CCCCCCCC(=O)NC[C@H](O)[C@@H](O)[C@H](O)[C@H](O)CO)C2)C[C@@H]1OC [Example 12, 4-amino-5-chloro-2-methoxy-N-((3S,4R)-3-methoxy-1-(6-oxo-6-(((R)-1-(8-oxo-8-(((2S,3R,4R,5R)-2,3,4,5,6-pentahydroxyhexyl)amino)octyl)piperidin-3-yl)amino)hexyl)piperidin-4-yl)benzamide]"
13,12.9,"COc1cc(N)c(Cl)cc1C(=O)N[C@@H]1CCN(CCCCCC(=O)N[C@@H]2CCCN(CCCCCC(=O)NC[C@H](O)[C@@H](O)[C@H](O)[C@H](O)CO)C2)C[C@@H]1OC [Example 13, 4-amino-5-chloro-2-methoxy-N-((3S,4R)-3-methoxy-1-(6-oxo-6-(((R)-1-(6-oxo-6-(((2S,3R,4R,5R)-2,3,4,5,6-pentahydroxyhexyl)amino)hexyl)piperidin-3-yl)amino)hexyl)piperidin-4-yl)benzamide]"
14,16.8,"COc1cc(N)c(Cl)cc1C(=O)N[C@@H]1CCN(CCCCCC(=O)N(C)[C@@H]2CCCN(CCCCCCCC(=O)NC[C@H](O)[C@@H](O)[C@H](O)[C@H](O)CO)C2)C[C@@H]1OC [Example 14, 4-amino-5-chloro-2-methoxy-N-((3S,4R)-3-methoxy-1-(6-(methyl((R)-1-(8-oxo-8-(((2S,3R,4R,5R)-2,3,4,5,6-pentahydroxyhexyl)amino)octyl)piperidin-3-yl)amino)-6-oxohexyl)piperidin-4-yl)benzamide]"
15,31,"COc1cc(N)c(Cl)cc1C(=O)N[C@@H]1CCN(CCCCCC(=O)N(C)[C@@H]2CCCN(CCCCCC(=O)NC[C@H](O)[C@@H](O)[C@H](O)[C@H](O)CO)C2)C[C@@H]1OC [Example 15, 4-amino-5-chloro-2-methoxy-N-((3S,4R)-3-methoxy-1-(6-(methyl((R)-1-(6-oxo-6-(((2S,3R,4R,5R)-2,3,4,5,6-pentahydroxyhexyl)amino)hexyl)piperidin-3-yl)amino)-6-oxohexyl)piperidin-4-yl)benzamide]"
